The source of these data is PMC8704606, “The Artemiside-Artemisox-Artemisone-M1 Tetrad: Efficacies against Blood Stage P. falciparum Parasites, DMPK Properties, and the Case for Artemiside” (Pharmaceutics, 2021).

The term IC50 denotes the concentration that gives 50% inhibition.

On the set-up of data set [1]: method as in PMID 34097488. The settings on record: cited from earlier work.
The test system of data set [2] is fetal rat brain stem cells. The settings on record: ref S4 (24), cited from earlier work; for Viability NOEC: neuron-specific enolase activity, 7 days exposure.
For data set [3] the following is noted: single dose 10 mg/kg, healthy Aotus monkeys; cited from earlier work.
On the set-up of data set [4]: method as in PMID 18559649. As to conditions: clinical Phase I trial, subject plasma samples; cited from earlier work.
The test system of another data set is 7G8 (CQ resistant). Details: method as in ref S2. The settings on record: [3H]-hypoxanthine assay; ref S2; read-out: Antimalarial activities IC50 7G8; cited from earlier work.
The test system of data set [5] is TM93-C1088 (atovaquone and CQ resistant). The arrangement: method as in ref S2. The settings on record: [3H]-hypoxanthine assay; ref S2; read-out: Antimalarial activities IC50 TM93-C1088; cited from earlier work.
For a further data set, the system named is D6 (CQ sensitive). Details: method as in ref S2. The settings on record: [3H]-hypoxanthine assay; ref S2; read-out: Antimalarial activities IC50 D6; cited from earlier work.
The subject of a further data set is TM-C2B. Details: method as in ref S2. The settings on record: [3H]-hypoxanthine assay; ref S2; read-out: Antimalarial activities IC50 TM-C2B; cited from earlier work.
Data set [6] relates to TM91-C235 (CQ and MFQ resistant). Details: method as in ref S2. The settings on record: [3H]-hypoxanthine assay; ref S2; read-out: Antimalarial activities IC50 TM91-C235; cited from earlier work.
The subject of a further data set is W2 (CQ resistant). The arrangement: method as in ref S2. The settings on record: [3H]-hypoxanthine assay; ref S2; read-out: Antimalarial activities IC50 W2; cited from earlier work.
Data set [7] relates to early-stage (EG) Pf NF54 gametocytes. As to the kind of experiment: Luciferase assay, early-stage gametocytes. It is filed as cell-based, Plasmodium falciparum. The settings on record: early-stage gametocytes >95% stages II-III, 48 h incubation, ± SEM. As for the experimental part: For screening artemisox and M1 against early- (EG) and late-stage (LG) gametocytes, the luciferase assay with transgenic NF54-pfs16-GFP-Luc and NF54-Mal8p1.16-GFP-Luc parasite lines was used. With this assay, stage-specificity of gametocytocidal action was established (Table 2). Dose-response curves are in Figures S1d,e and S2d in the Supplementary Material 1. […] As was observed previously for artemisone and artemiside, dose responses for artemisox and M1 could not be obtained at 48 h against late-stage gametocytes.
The same reference compounds with the exception of CQ were used for the early- and late-stage gametocyte assays. Gametocytocidal activity was determined using the transgenic NF54-pfs16-GFP-Luc and NF54-Mal8p1.16-GFP-Luc reporter lines. Compounds were initially screened for activity at a fixed drug concentration of 1 µM, with dose responses subsequently determined using 2-fold serial drug dilutions for 48 h against early-stage gametocytes (day 5 post-induction population, ≥95% stages II–III) and 10-fold serial drug dilutions for 48 h or 72 h against late-stage gametocytes (day 10 post-induction population, ≥90% late-stage [stages IV–V]) (2 to 3% gametocytemia, 2% hematocrit) at 37 °C under 90% N2, 5% CO2, and 5% O2 [6]. No drug washout steps were performed during the drug incubation periods prior to the assays. In all cases, an interference assay was run in parallel to eliminate the possibility of false positives arising through compound interference with the luciferase readout.

Data set [8] has as its system asexual blood stages of Pf W2 (drug resistant). In words: SYBR Green I proliferation assay, asexual blood stages, Pf W2. Type of data set: cell-based, Plasmodium falciparum. The procedure:
(§1) Dose response curves are in Figures S1a–c and S2a–c in the Supplementary Material 1. Table 1 also includes the historical values for artemiside and artemisone obtained using the same assay.
(§2) All other assay conditions are as previously described. Compound working solutions were prepared from a 10 mM stock solution in 100% (vol/vol) dimethyl sulfoxide (DMSO, Sigma-Aldrich) in supplemented RPMI 1640 medium containing AlbuMAX II with a final DMSO concentration of 0.1% (vol/vol), previously determined to be nontoxic to blood stage asexual parasites and gametocytes. The dose-responses of the amino-artemisinins were assayed using a 2-fold serial drug dilution on in vitro 95% ring-stage parasites at 37 °C under 90% N2, 5% CO2, and 5% O2 atmospheric conditions, detecting SYBR green I fluorescence as the proliferative marker following a 96 h drug treatment (1% parasitemia and 1% hematocrit) using a GloMaxR-Multi+ Detection System (Promega). No drug washout steps were performed during drug incubation periods prior to the assays. Activity against the Pf drug-sensitive NF54 strain and the drug-resistant K1 (resistant to CQ, quinine, pyrimethamine, and cycloguanil) and W2 (resistant to CQ, quinine, pyrimethamine, and cycloguanil) strains was evaluated. Data analysis was performed using GraphPad Prism (version 6), intra-assay variability was monitored with Z-factors, and acceptable interassay reproducibility was determined from the percent coefficient of variation (CV).

Data set [9] concerns asexual blood stages of Pf K1 (drug resistant). In words: SYBR Green I proliferation assay, asexual blood stages, Pf K1. It is filed as cell-based, Plasmodium falciparum. The procedure:
as §1, §2

Data set [10] relates to asexual blood stages of Pf NF54 (drug sensitive). In words: SYBR Green I proliferation assay, asexual blood stages, Pf NF54. It is filed as cell-based, Plasmodium falciparum. As for the experimental part:
as §1, §2

The mark [11] stands for this setting: ATP levels 1 day after initial administration.

SMILES strings stand for the structures. Where two headings read alike, the source gives them in different places. A value given as a limit tells only on which side of the number the result lay.

Consider `C[C@H]1[C@H](N2CCSCC2)O[C@@H]2O[C@@]3(C)CC[C@H]4[C@H](C)CC[C@@H]1[C@@]24OO3` [Artemiside 5, Artemiside], for which the “F% (oral bioavailability)” value in data set [1] is recorded as 1%. Moreover, in data set [2] (setting [11]), the “ATP IC50” value is 8.5 µg/mL. Moreover, the “ATP NOEC” value in data set [2] (setting [11]) is listed as 1.0 µg/mL; in data set [2] (ATP levels 1 day after initial administration, listed as artemiside), 1 µg/mL. Besides, the “Viability NOEC” value in [2] was 1.0 µg/mL; in [2] (listed as artemiside) it was 1 µg/mL.
On to `C[C@H]1[C@H](N2CCS(=O)(=O)CC2)O[C@@H]2O[C@@]3(C)CC[C@H]4[C@H](C)CC[C@@H]1[C@@]24OO3` [Artemisone 7, Artemisone], for which the “ex vivo antimalarial activity observable up to (post dose)” value in data set [3] is reported as “up to 7 h”. In addition, the “fold higher ex vivo antimalarial activity at Tmax than corresponds to plasma concentration by LC-MS/MS” value in data set [4] was 2.3 fold. The IC50 with 7G8 (CQ resistant) is 0.8 ± 0.1 nM; in data set [5], 0.7 ± 0.2 nM; in the data set with D6 (CQ sensitive) it was 1 ± 0.4 nM; with TM-C2B, 1.1 ± 0.4 nM; in [6], 1.1 ± 0.5 nM; with W2 (CQ resistant), 1.3 ± 0.5 nM.
For the molecule `C[C@H]1[C@H](N2CC[S+]([O-])CC2)O[C@@H]2O[C@@]3(C)CC[C@H]4[C@H](C)CC[C@@H]1[C@@]24OO3` [Artemisox 6, Artemisox], the IC50 was 18.9 nM in [7] (Plasmodium falciparum, NF54, 48 h); 18.9 ± 0.98 nM in [7]; 1.5 ± 0.4 nM in [8] (Plasmodium falciparum, asexual blood stage Pf W2, multidrug resistant, SYBR Green I, 96 h, ± SEM); 1.5 ± 0.5 nM in data set [9] (Plasmodium falciparum, asexual blood stage Pf K1, multidrug resistant, SYBR Green I, 96 h, ± SEM); 1.95 ± 0.25 nM in data set [10] (Plasmodium falciparum, NF54, 96 h, asexual blood stage Pf NF54, CQ sensitive, SYBR Green I, 96 h, ± SEM, read-out: IC50 NF54); around 2 nM in data set [10] (Plasmodium falciparum, NF54, summary over NF54, K1 and W2 strains, read-out: IC50 against asexual Pf blood stage parasites). Also, the 50% inhibitory concentration (IC50) in [10] (summary over NF54, K1 and W2 strains, read-out: IC50 against asexual Pf blood stage parasites) is 1.5 to 2.6 nM. Moreover, the “RI = IC50 W2/IC50 NF54” value in [8] is listed as 0.7. For the same molecule, in data set [9], the “RI (resistance index) = IC50 K1/IC50 NF54” value is given as 0.8. Besides, the “RI ratios” value in [9] (multidrug resistant K1 and W2 vs NF54) is listed as below 1.
